Biological target: ATX (human His-tagged) (Homo sapiens (Human), UniProt Q13822)
Assay: Human ATX enzyme inhibition assay (fluorescence quenching, MR121 substrate)
Assay type: biochemical
Conditions: 30 nM ATX, 1 μM MR121 substrate, 30° C., pH 8.0
Procedure: Production of Human Full Length ATX, with and without his Tag
Autotaxin (ATX-ENPP2) Cloning:
cDNA was prepared from commercial human hematopoietic cells total RNA and used as template in overlapping PCR to generate a full length human ENPP2 ORF with or without a 3′-6×His tag. These full length inserts were cloned into the pcDNA3.1V5-His TOPO (Invitrogen) vector. The DNA sequences of several single clones were verified. The DNA from a correct full length clone was used to transfect Hek293 cells for verification of protein expression. […] ATX Fermentation: Recombinant protein was produced by large-scale transient transfection in 20 L controlled stirred tank bioreactors (Sartorius). During cell growth and transfection, temperature, stirrer speed, pH and dissolved oxygen concentration were maintained at 37° C., 120 rpm, 7.1 and 30% DO, respectively. […] Expression was analyzed by Western Blot, enzymatic assay and/or analytical IMAC chromatography. After cooling the cell suspension to 4° C. in a flow-through heat exchanger, cell separation and sterile filtration of supernatant was performed by filtration through Zeta Plus 60M02 E16 (Cuno) and Sartopore 2 XLG (Sartorius) filter units. The supernatant was stored at 4° C. prior to purification. ATX Purification: 20 liter of culture supernatant were conditioned for ultrafiltration by adding Brij 35 to a final concentration of 0.02% and by adjusting the pH to 7.0 using 1 M HCl. Then the supernatant was first microfiltered through a 0.2 μm Ultran-Pilot Open Channel PES filter (Whatman) and afterwards concentrated to 1 liter through an Ultran-Pilot Screen Channel PES filter with 30 kDa MWCO (Whatman). Prior to IMAC chromatography, NiSO4 was added to a final concentration of 1 mM. The cleared supernatant was then applied to a HisTrap column (GE Healthcare) previously equilibrated in 50 mM Na2HPO4 pH 7.0, 0.5 M NaCl, 10% glycerol, 0.3% CHAPS, 0.02% NaN3. The column was washed stepwise with the same buffer containing 20 mM, 40 mM and 50 mM imidazole, respectively. The protein was subsequently eluted using a linear gradient to 0.5 M imidazole in 15 column volumes. ATX containing fractions were pooled and concentrated using an Amicon cell equipped with a 30 kDa PES filter membrane. The protein was further purified by size exclusion chromatography on Superdex S-200 prep grade (XK 26/100) (GE Healthcare) in 20 mM BICINE pH 8.5, 0.15 M NaCl, 10% glycerol, 0.3% CHAPS, 0.02% NaN3. […] The protein was stored at −80° C. […] 10 μL of MR121 substrate solution was added (1 μM final concentration), mixed 30 times and then incubated for 15 minutes at 30° C.

IC50 | Compound
9 nM | NS(=O)(=O)c1ccc(C(=O)N2C[C@H]3CN(C(=O)c4cc(OCC5CCCOC5)nc(C5CC5)c4)C[C@@H]3C2)nc1 (stereo partly drawn) [Example 2.17, 6-((3aR,6aR)-5-(2-cyclopropyl-6-((tetrahydro-2H-pyran-3-yl)methoxy)isonicotinoyl)octahydropyrrolo[3,4-c]pyrrole-2-carbonyl)pyridine-3-sulfonamide]
10 nM | O=C(c1cc(OCC2CCOCC2)nc(C2CC2)c1)N1C[C@@H]2CN(Cc3ccc4[nH]nnc4c3)C[C@H]2C1 [Example 2.18, ((3aS,6aS)-5-((1H-benzo[d][1,2,3]triazol-5-yl)methyl)hexahydropyrrolo[3,4-c]pyrrol-2(1H)-yl)(2-cyclopropyl-6-((tetrahydro-2H-pyran-4-yl)methoxy)pyridin-4-yl)methanone]
10 nM | O=C(c1cc(OCC2CCCOC2)nc(C2CC2)c1)N1C[C@@H]2CN(Cc3ccc4[nH]nnc4c3)C[C@H]2C1 (stereo partly drawn) [Example 2.19, ((3aS,6aS)-5-((1H-benzo[d][1,2,3]triazol-5-yl)methyl)hexahydropyrrolo[3,4-c]pyrrol-2(1H)-yl)(2-cyclopropyl-6-((tetrahydro-2H-pyran-3-yl)methoxy)pyridin-4-yl)methanone]
40 nM | O=C(c1cc(Cl)nc(OCC2CCOCC2)c1)N1C[C@@H]2CN(C(=O)c3ccc4[nH]nnc4c3)C[C@H]2C1 [Example 2.20, ((3aS,6aS)-5-(1H-benzo[d][1,2,3]triazole-5-carbonyl)hexahydropyrrolo[3,4-c]pyrrol-2(1H)-yl)(2-chloro-6-((tetrahydro-2H-pyran-4-yl)methoxy)pyridin-4-yl)methanone]
10 nM | O=C(c1ccc2[nH]nnc2c1)N1CC[C@@H]2CN(C(=O)c3cc(OCC4CCOCC4)nc(C4CC4)c3)C[C@@H]2CC1 [Example 2.22, ((3aR,8aS)-6-(1H-benzo[d][1,2,3]triazole-5-carbonyl)octahydropyrrolo[3,4-d]azepin-2(1H)-yl)(2-cyclopropyl-6-((tetrahydro-2H-pyran-4-yl)methoxy)pyridin-4-yl)methanone]
5 nM | CN(C)c1cc(C(=O)N2C[C@@H]3CN(C(=O)c4ccc5[nH]nnc5c4)C[C@H]3C2)cc(OCC2CCOCC2)n1 [Example 2.23, ((3aS,6aS)-5-(1H-benzo[d][1,2,3]triazole-5-carbonyl)hexahydropyrrolo[3,4-c]pyrrol-2(1H)-yl)(2-(dimethylamino)-6-((tetrahydro-2H-pyran-4-yl)methoxy)pyridin-4-yl)methanone]
11 nM | O=C(c1cc(OCC2CCOCC2)nc(C2CC2)c1)N1C[C@@H]2CN(Cc3ccc4[nH]c(=O)oc4c3)C[C@H]2C1 [Example 2.24, 6-(((3aS,6aS)-5-(2-cyclopropyl-6-((tetrahydro-2H-pyran-4-yl)methoxy)isonicotinoyl)hexahydropyrrolo[3,4-c]pyrrol-2(1H)-yl)methyl)benzo[d]oxazol-2(3H)-one]
17 nM | CN(C)c1cc(C(=O)N2C[C@@H]3CN(C(=O)[C@@H]4CCc5[nH]nnc5C4)C[C@H]3C2)cc(OCC2CCOCC2)n1 [Example 2.25, ((3aS,6aS)-5-(2-(dimethylamino)-6-((tetrahydro-2H-pyran-4-yl)methoxy)isonicotinoyl)hexahydropyrrolo[3,4-c]pyrrol-2(1H)-yl)((R)-4,5,6,7-tetrahydro-1H-benzo[d][1,2,3]triazol-5-yl)methanone]
14 nM | O=C(c1cc(OCC2CCOCC2)nc(C2CC2)c1)N1C[C@@H]2CN(C(=O)c3ccc4[nH]nnc4c3)C[C@@H]2C1 [Example 2.26, ((3aR,6aS)-5-(1H-benzo[d][1,2,3]triazole-5-carbonyl)hexahydropyrrolo[3,4-c]pyrrol-2(1H)-yl)(2-cyclopropyl-6-((tetrahydro-2H-pyran-4-yl)methoxy)pyridin-4-yl)methanone]
7 nM | O=C(c1cc(OCC2CCOCC2)cc(C2CC2)c1)N1CC[C@@H]2CN(C(=O)[C@@H]3CCc4[nH]nnc4C3)C[C@@H]2CC1 [Example 2.28, ((3aR,8aS)-6-(3-cyclopropyl-5-((tetrahydro-2H-pyran-4-yl)methoxy)benzoyl)octahydropyrrolo[3,4-d]azepin-2(1H)-yl)((R)-4,5,6,7-tetrahydro-1H-benzo[d][1,2,3]triazol-5-yl)methanone]
7 nM | O=C(c1cc(OCC2CCOCC2)cc(C2CC2)c1)N1C[C@@H]2CN(C(=O)c3ccc4[nH]nnc4c3)C[C@H]2C1 [Example 2.29, ((3aS,6aS)-5-(1H-benzo[d][1,2,3]triazole-5-carbonyl)hexahydropyrrolo[3,4-c]pyrrol-2(1H)-yl)(3-cyclopropyl-5-((tetrahydro-2H-pyran-4-yl)methoxy)phenyl)methanone]
25 nM | O=C(c1cnc(OC2CCOCC2)c(C2CC2)c1)N1C[C@@H]2CN(C(=O)c3ccc4[nH]c(=O)oc4c3)C[C@H]2C1 [Example 3, 6-((3aS,6aS)-5-(5-Cyclopropyl-6-(tetrahydro-2H-pyran-4-yloxy)nicotinoyl)octahydropyrrolo[3,4-c]pyrrole-2-carbonyl)benzo[d]oxazol-2(3H)-one]
12 nM | O=C(c1cc(OCC2CCOCC2)nc(C2CC2)c1)N1C[C@@H]2CN(C(=O)c3ccc4[nH]c(=O)oc4c3)C[C@H]2C1 [Example 3.01, 6-((3aS,6aS)-5-(2-cyclopropyl-6-((tetrahydro-2H-pyran-4-yl)methoxy)isonicotinoyl)octahydropyrrolo[3,4-c]pyrrole-2-carbonyl)benzo[d]oxazol-2(3H)-one]
25 nM | O=C(c1cc(OCC2CCOCC2)nc(C2CC2)c1)N1CC[C@@H]2CN(C(=O)c3ccc4[nH]c(=O)oc4c3)C[C@@H]2CC1 [Example 3.02, 6-((3aR,8aS)-6-(2-cyclopropyl-6-((tetrahydro-2H-pyran-4-yl)methoxy)isonicotinoyl)decahydropyrrolo[3,4-d]azepine-2-carbonyl)benzo[d]oxazol-2(3H)-one]
19 nM | O=C(c1cnc(OC2CCOCC2)c(C2CC2)c1)N1C[C@@H]2CN(Cc3ccc4[nH]c(=O)oc4c3)C[C@H]2C1 [Example 4, 6-(((3aS,6aS)-5-(5-Cyclopropyl-6-(tetrahydro-2H-pyran-4-yloxy)nicotinoyl)hexahydropyrrolo[3,4-c]pyrrol-2(1H)-yl)methyl)benzo[d]oxazol-2(3H)-one]
39 nM | O=C(c1cnc(OC2CCOCC2)c(C2CC2)c1)N1C[C@@H]2CN(Cc3ccc4[nH]nnc4c3)C[C@H]2C1 [Example 4.01, ((3aS,6aS)-5-((1H-benzo[d][1,2,3]triazol-5-yl)methyl)hexahydropyrrolo[3,4-c]pyrrol-2(1H)-yl)(5-cyclopropyl-6-(tetrahydro-2H-pyran-4-yloxy)pyridin-3-yl)methanone]
6 nM | O=C(OCc1c[nH]nn1)N1C[C@H]2CCN(C(=O)c3cc(OCC4CCOCC4)nc(C4CC4)c3)CC[C@H]2C1 [Example 7, 1H-Triazol-4-ylmethyl (3aS,8aR)-6-[2-cyclopropyl-6-(oxan-4-ylmethoxy)pyridine-4-carbonyl]-1,3,3a,4,5,7,8,8a-octahydropyrrolo[3,4-d]azepine-2-carboxylate]

From patent US9802944B2, “Bicyclic compounds as autotaxin (ATX) and lysophosphatidic acid (LPA) production inhibitors” (Hoffmann-La Roche Inc., priority 2014, dated 2017)
